Three substances from article PMC9784828, “Antimicrobial Activity of Peptide-Coupled Antisense Peptide Nucleic Acids in Streptococcus pneumoniae” (Microbiology Spectrum, 2022) can be followed below.

Test [1] concerns rpoB mRNA. As to the kind of experiment: RT-qPCR, relative expression of rpoB. Type of test: cell-based, Streptococcus pneumoniae. The following applies: TIGR4; 10 μM CPP-anti-rpoB PNA; 6 h; normalised to 5S rRNA; n = 3. How it is done: (§1) We investigated the influence of treatment with CPP-conjugated antisense PNAs on the amount of target gene mRNA in S. pneumoniae using reverse transcription-quantitative PCR (RT-qPCR) (Fig. 3). S. pneumoniae strain TIGR4 was treated with a sublethal dose (log CFU reduction of <2) of CPP-PNA conjugates. Transcript abundance of the 5S rRNA gene was used for normalization ([27]). Target gene mRNA levels in mock-treated bacteria served as controls. Treatment with 7.5 μM CPP-anti-gyrA PNAs and 10 μM CPP-anti-rpoB PNAs led to significant reductions in the respective target gene transcripts compared to the untreated control sample (Fig. 3).
(§2) For RNA isolation, 450 μL bacterial suspension (10^5 CFU/mL in BHI) was prepared for each experimental condition, treated with CPP-PNA conjugates as indicated, and incubated in a 2-mL reaction tube for 6 h at 37°C and 7 rpm (Rotor SB3; Stuart, Staffordshire, United Kingdom). Subsequently, five samples per condition were pooled. […]
(§3) cDNA synthesis was performed using the Superscript First-Strand Synthesis system for RT-qPCR (Invitrogen, Thermo Fisher Scientific, Darmstadt, Germany). Quantitative PCR amplification was conducted with SYBR Green (Thermo Fisher Scientific) using the LightCycler 480 real-time PCR system (Roche Diagnostics GmbH, Mannheim, Germany). […] Relative expression was calculated using the 2^–ΔΔ^CT method ([27]). […]

Test [2] deals with ply (pneumolysin) transcript. As to the kind of experiment: RT-qPCR, relative expression of virulence gene ply. As to conditions: TIGR4; 10 μM CPP-anti-rpoB PNA; normalised to 5S rRNA; n = 3. Type of test: cell-based, Streptococcus pneumoniae. As to the method:
(§4) Because the product of rpoB is the β-subunit of the bacterial RNA-polymerase, which is responsible for RNA synthesis, downregulation of rpoB by treatment with antisense PNAs is expected to affect gene expression. Therefore, we tested the relative expression of two virulence factor genes following treatment with 10 μM CPP-anti-rpoB PNAs compared to expression in the mock-treated control as an example (Fig. 3C and D).
(§5) For RNA isolation, 450 μL bacterial suspension (10^5 CFU/mL in BHI) was prepared for each experimental condition, treated with CPP-PNA conjugates as indicated, and incubated in a 2-mL reaction tube for 6 h at 37°C and 7 rpm (Rotor SB3; Stuart, Staffordshire, United Kingdom). Subsequently, five samples per condition were pooled. Bacteria were pelleted immediately, shock-frozen in liquid nitrogen, and stored at −80°C until use. Total RNA was extracted according to the protocol published by Li-Korotky et al. ([46]). […]
as §3
(In general: Real-time PCR tracks product formation cycle by cycle.)

In test [3] the test system is pspA (pneumococcal surface protein A) transcript. As to the kind of experiment: RT-qPCR, relative expression of virulence gene pspA. The test is classed as cell-based, Streptococcus pneumoniae. As to conditions: TIGR4; 10 μM CPP-anti-rpoB PNA; normalised to 5S rRNA; n = 3. How it is done:
as §4, §5, §3

The test system of test [4] is S. pneumoniae TIGR4. As to the kind of experiment: In vitro time-killing assay (killing kinetics). The following applies: 10 μM, n = 3. Type of test: cell-based, Streptococcus pneumoniae. How it is done: The antimicrobial activity kinetics of TAT- and (RXR)4XB-conjugated anti-gyrA PNA constructs in S. pneumoniae TIGR4 were studied using an in vitro time-killing assay. Bacteria were treated with 10 μM CPP-antisense PNAs or scrambled control PNAs (Fig. 2). Samples were collected every 2 h following antisense treatment. CFU/mL was determined by plating of serial dilutions and plotted over time. […] In contrast, (RXR)4XB-conjugated anti-gyrA PNA treatment led to a continuous reduction in S. pneumoniae CFU until complete eradication after 12 h.
For monitoring of killing kinetics, samples were collected 2 to 12 h post-treatment. Viable cell counts were determined by plating appropriate dilutions on BHI agar plates. CFU were determined by visual inspection following overnight incubation at 37°C under a 5% CO2 atmosphere. At time point 0, the viable cell count corresponded to 1 × 10^5 to 3 × 10^5 CFU/mL.

The subject of test [5] is gyrA mRNA. As to the kind of experiment: RT-qPCR, relative expression of gyrA. The test is classed as cell-based, Streptococcus pneumoniae. The following applies: TIGR4; 7.5 μM CPP-anti-gyrA PNA; 6 h; normalised to 5S rRNA; 2^–ΔΔCT; n = 3. How it is done: as §1, §2, §3
Test [6] deals with Detroit 562 cells infected with S. pneumoniae TIGR4. Briefly: Cell-based infection model, bacterial CFU. Also noted: species or system Streptococcus pneumoniae. The following applies: 20 μM CPP-PNA; MOI 5; 3 h at 37°C; n = 3. As to the method: Detroit 562 human pharyngeal epithelial cells were infected with S. pneumoniae TIGR4 at a multiplicity of infection (MOI) of 5. Cells were treated with 20 μM (RXR)4XB-anti-gyrA PNA or scrambled control PNA, respectively. As a positive control, 1 μg levofloxacin, corresponding to 3× MIC, was added. Following incubation for 3 h at 37°C, bacterial CFU counts were determined for CPP-antisense PNA-treated samples and compared to those in nontreated samples and in samples containing scrambled control PNAs (Fig. 4A). Treatment with (RXR)4XB-anti-gyrA caused a log CFU reduction of 1. Addition of levofloxacin led to a log CFU reduction of 2.
The human pharynx carcinoma epithelial cell line Detroit 562 (ATCC CCL138) was cultivated in Dulbecco’s modified Eagle medium (DMEM)/F12 (1:1) (Thermo Fisher Scientific, Schwerte, Germany) supplemented with 10% fetal bovine serum at 37°C and 5% CO2. Confluent Detroit 562 cells were infected with S. pneumoniae TIGR4 at an MOI of 5. Cultures were treated with 20 μM CPP-PNAs or 1 μg levofloxacin, respectively, and incubated for 3 h at 37°C, 5% CO2. After incubation, the supernatant was collected. Adherent cells were detached with Accutase solution (Merck KGaA, Darmstadt, Germany), collected by centrifugation for 10 min at 4,000 × g, and combined with the supernatant. Cells were pelleted by centrifugation, washed twice with PBS, and suspended in PBS. CFU/well was determined following serial dilution and plating on Todd Hewitt Broth, supplemented with Yeast, (THY) agar plates.

Consider “RXRRXRRXRRXRXB-eg-ctgccaagatga [(RXR)4XB-anti-rpoB PNA, (RXR)4XB peptide coupled to antisense PNA against rpoB]”, for which the “rpoB transcript level relative to mock-treated control” value in test [1] came to 51%. In addition, the “Expression of ply relative to mock-treated control” value in test [2] was determined as 56%. Besides, the “Expression of pspA relative to mock-treated control” value in test [3] was “no significant reduction”.

As to “GRKKRRQRRRYK-eg-ctgccaagatga [TAT-anti-rpoB PNA, HIV-1 TAT (48–57) peptide coupled to antisense PNA against S. pneumoniae rpoB]”, the “rpoB transcript level relative to mock-treated control” value in test [1] came out at 45%. In addition, the “Expression of ply relative to mock-treated control” value in test [2] stood at 45%. Further, the “Expression of pspA relative to mock-treated control” value in test [3] is listed as 57%.

“RXRRXRRXRRXRXB-eg-tgcattaata [(RXR)4XB-anti-gyrA PNA, (RXR)4XB peptide coupled to antisense PNA against gyrA]”: the “Time to complete eradication of S. pneumoniae CFU” value in test [4] was found to be 12 h. In addition, the “gyrA mRNA level relative to mock-treated control” value in test [5] is on record as 45%. In addition, the “log CFU reduction in infected Detroit 562 cells” value in test [6] is listed as 1.
